This note sets out measurements from PMC9820167, “Design and Synthesis of Conformationally Flexible Scaffold as Bitopic Ligands for Potent D3-Selective Antagonists” (International Journal of Molecular Sciences, 2022).

Like-named read-outs stand apart in the source and are kept apart here. Bounds are passed on as bounds.

Common to all, as to assay: PDSP binding screen
The target of one test is T1, Opioid DOR (Homo sapiens, UniProt P41143).
T1 construct: Psychoactive Drug Screening Program (PDSP)
T1 sequence (P41143 whole entry): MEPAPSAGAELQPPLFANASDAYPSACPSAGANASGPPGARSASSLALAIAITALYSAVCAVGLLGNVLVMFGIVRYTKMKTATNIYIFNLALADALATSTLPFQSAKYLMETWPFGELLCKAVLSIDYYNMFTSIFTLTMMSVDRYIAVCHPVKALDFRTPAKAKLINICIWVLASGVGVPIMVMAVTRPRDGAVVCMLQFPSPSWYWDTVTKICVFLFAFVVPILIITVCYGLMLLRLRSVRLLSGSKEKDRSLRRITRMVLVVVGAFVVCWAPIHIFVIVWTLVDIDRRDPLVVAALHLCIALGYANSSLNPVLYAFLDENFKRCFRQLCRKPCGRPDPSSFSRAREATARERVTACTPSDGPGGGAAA
To be noted: read-out: Ki (nM) or % inhibition at 10 µM: DOR. The text has this: (§1) Based on the results in the dopamine receptor radioligand binding assays, nine flexible-based compounds were selected for further evaluation for off-target binding with other GPCRs through the Psychoactive Drug Screening Program (PDSP) (Supplemental Table S2). […] For example, many of the N-aryl piperazine-based analogs that our group developed in the past for either the D2 or D3 receptor had high affinity for the 5-HT1A receptor [55, 56, 57, 58]. […] This mitochondrial-based protein is typically used as a target for imaging neuroinflammation. The results of the PDSP-binding assays also confirmed the data obtained in our lab for the binding of this panel of nine compounds to D2 and D3 receptors (Supplemental Table S2).

Test [1] concerns the target T2, Serotonin transporter (SERT) (Homo sapiens, UniProt P31645).
T2 construct: Psychoactive Drug Screening Program (PDSP)
To be noted: for inhibition at 10 µM: read-out: Ki (nM) or % inhibition at 10 µM: Serotonin transporter (SERT); for Ki: PDSP, HCl salts.
From the text: as §1

The target of a further test is T3, Serotonin 5-HT5A (Homo sapiens, UniProt P47898).
T3 construct: Psychoactive Drug Screening Program (PDSP)
T3 sequence (P47898 whole entry): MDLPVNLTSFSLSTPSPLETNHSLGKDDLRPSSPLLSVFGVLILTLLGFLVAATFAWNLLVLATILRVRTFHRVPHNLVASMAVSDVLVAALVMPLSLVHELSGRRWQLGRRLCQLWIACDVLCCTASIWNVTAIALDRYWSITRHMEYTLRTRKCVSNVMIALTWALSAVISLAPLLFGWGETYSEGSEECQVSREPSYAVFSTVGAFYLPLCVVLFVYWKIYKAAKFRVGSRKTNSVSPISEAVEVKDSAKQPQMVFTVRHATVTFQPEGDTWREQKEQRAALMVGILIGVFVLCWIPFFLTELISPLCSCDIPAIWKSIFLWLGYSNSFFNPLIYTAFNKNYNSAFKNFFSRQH
To be noted: read-out: Ki (nM) or % inhibition at 10 µM: 5-HT5A.
From the text: as §1

A further test has as its target T4, Serotonin 5-HT1E (Homo sapiens, UniProt P28566).
T4 construct: Psychoactive Drug Screening Program (PDSP)
To be noted: read-out: Ki (nM) or % inhibition at 10 µM: 5-HT1E.
From the text: as §1

The target of the next test is T5, Muscarinic M1 (Homo sapiens, UniProt P11229).
T5 sequence (P11229 1-460): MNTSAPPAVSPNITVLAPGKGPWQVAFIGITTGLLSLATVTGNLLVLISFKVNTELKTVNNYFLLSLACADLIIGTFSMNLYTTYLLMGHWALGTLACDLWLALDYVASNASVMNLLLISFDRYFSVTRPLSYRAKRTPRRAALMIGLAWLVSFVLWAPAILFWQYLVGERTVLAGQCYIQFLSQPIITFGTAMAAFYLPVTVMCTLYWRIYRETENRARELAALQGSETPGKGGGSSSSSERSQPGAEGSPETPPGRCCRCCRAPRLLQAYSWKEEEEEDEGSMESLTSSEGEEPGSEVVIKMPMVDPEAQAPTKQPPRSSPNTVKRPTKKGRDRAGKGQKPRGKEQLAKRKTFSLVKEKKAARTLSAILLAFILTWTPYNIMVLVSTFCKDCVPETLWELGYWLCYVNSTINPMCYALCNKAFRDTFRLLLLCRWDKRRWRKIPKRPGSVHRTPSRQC
To be noted: for inhibition at 10 µM: read-out: Ki (nM) or % inhibition at 10 µM: M1.

Another test deals with T6, Adrenergic alpha2B (Homo sapiens, UniProt P18089).
T6 sequence (P18089 1-450): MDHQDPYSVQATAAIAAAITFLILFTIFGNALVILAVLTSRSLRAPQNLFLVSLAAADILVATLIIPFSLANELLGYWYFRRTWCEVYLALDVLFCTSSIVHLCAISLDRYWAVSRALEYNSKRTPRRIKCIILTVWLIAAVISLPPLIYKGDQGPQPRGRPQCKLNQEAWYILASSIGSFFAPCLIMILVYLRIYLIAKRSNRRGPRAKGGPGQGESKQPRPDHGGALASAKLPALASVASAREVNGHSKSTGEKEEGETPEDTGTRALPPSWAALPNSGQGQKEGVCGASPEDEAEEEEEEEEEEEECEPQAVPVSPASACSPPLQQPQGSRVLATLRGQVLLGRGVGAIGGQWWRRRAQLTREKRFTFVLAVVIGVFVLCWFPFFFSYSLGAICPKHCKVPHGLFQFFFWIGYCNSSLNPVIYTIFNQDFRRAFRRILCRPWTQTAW

In another test the target is T7, Adrenergic alpha1D (Homo sapiens, UniProt P25100).
T7 sequence (P25100 1-572): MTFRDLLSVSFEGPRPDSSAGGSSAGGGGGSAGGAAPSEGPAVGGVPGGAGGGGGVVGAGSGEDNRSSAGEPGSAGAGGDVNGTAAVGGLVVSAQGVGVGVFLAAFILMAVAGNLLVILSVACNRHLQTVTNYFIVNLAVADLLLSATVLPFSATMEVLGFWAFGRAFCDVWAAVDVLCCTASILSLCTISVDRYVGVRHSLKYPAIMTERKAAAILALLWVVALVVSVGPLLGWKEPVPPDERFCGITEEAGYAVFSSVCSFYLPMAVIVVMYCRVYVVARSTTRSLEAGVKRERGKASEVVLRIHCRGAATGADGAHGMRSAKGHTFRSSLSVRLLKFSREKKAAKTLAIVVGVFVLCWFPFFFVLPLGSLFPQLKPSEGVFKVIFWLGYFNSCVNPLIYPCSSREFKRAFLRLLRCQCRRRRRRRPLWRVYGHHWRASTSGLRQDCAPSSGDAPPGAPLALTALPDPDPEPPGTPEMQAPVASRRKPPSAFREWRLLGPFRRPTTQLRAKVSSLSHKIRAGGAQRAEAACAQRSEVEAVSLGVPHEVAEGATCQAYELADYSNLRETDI
To be noted: for inhibition at 10 µM: read-out: Ki (nM) or % inhibition at 10 µM: alpha1D.

Another test concerns the target Histamine H2 (Homo sapiens, UniProt P25021). To be noted: for inhibition at 10 µM: read-out: Ki (nM) or % inhibition at 10 µM: H2.
Another test deals with Serotonin 5-HT1D (Homo sapiens, UniProt P28221).
Sequence of Serotonin 5-HT1D (P28221 whole entry): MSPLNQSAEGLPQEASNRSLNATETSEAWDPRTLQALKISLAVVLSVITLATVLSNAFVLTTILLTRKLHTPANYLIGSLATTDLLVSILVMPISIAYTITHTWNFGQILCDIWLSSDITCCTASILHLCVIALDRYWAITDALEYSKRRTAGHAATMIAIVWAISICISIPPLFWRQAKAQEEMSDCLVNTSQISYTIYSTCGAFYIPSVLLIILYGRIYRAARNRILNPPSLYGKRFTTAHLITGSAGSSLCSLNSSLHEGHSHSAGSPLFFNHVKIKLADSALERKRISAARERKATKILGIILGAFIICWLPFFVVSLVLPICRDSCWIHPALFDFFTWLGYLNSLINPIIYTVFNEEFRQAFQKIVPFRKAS
The next test addresses Serotonin 5-HT2A (Homo sapiens, UniProt P28223).
In the next test the target is Dopamine D1 (Homo sapiens, UniProt P21728). To be noted: for inhibition at 10 µM: read-out: Ki (nM) or % inhibition at 10 µM: D1.
Sequence of Dopamine D1 (P21728 whole entry): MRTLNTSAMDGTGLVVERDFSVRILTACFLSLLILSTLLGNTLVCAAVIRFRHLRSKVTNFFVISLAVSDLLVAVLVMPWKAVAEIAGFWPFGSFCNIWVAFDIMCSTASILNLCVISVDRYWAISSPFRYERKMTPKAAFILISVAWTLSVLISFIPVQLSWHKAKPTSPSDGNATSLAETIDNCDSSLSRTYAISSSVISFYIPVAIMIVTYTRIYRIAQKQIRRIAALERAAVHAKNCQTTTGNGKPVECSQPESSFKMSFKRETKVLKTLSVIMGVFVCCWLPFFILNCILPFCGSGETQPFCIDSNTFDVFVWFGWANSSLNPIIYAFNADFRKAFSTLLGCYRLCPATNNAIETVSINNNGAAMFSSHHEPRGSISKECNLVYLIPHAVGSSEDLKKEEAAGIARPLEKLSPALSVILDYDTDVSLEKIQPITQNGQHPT

T2 sequence (P31645 whole entry, species assumed): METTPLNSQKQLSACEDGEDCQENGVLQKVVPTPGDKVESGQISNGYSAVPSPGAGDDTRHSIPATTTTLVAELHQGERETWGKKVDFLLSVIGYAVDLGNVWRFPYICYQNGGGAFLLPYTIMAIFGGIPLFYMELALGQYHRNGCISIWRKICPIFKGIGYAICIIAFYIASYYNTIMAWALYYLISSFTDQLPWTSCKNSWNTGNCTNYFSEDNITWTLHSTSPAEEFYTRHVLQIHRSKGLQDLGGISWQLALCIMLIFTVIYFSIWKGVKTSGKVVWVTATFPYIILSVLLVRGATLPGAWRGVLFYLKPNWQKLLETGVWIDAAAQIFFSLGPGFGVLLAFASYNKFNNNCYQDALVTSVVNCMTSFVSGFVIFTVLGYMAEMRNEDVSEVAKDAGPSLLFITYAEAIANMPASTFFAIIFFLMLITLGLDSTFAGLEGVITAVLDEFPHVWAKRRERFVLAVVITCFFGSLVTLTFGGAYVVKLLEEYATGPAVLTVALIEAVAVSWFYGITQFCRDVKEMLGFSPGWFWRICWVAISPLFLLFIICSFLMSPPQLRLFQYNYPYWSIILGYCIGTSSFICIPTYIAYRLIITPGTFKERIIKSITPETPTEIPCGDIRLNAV
Sequence of Histamine H2 (P25021 whole entry): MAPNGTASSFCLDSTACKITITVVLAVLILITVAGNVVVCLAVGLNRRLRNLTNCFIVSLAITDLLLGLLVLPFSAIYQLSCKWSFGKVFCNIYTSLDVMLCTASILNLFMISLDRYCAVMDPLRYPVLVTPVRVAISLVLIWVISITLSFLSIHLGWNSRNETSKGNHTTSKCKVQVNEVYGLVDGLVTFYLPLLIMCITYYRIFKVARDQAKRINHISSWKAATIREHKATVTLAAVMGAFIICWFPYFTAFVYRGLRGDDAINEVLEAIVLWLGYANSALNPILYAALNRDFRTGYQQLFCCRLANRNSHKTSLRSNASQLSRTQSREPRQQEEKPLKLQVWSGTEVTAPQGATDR
Sequence of Serotonin 5-HT2A (P28223 whole entry): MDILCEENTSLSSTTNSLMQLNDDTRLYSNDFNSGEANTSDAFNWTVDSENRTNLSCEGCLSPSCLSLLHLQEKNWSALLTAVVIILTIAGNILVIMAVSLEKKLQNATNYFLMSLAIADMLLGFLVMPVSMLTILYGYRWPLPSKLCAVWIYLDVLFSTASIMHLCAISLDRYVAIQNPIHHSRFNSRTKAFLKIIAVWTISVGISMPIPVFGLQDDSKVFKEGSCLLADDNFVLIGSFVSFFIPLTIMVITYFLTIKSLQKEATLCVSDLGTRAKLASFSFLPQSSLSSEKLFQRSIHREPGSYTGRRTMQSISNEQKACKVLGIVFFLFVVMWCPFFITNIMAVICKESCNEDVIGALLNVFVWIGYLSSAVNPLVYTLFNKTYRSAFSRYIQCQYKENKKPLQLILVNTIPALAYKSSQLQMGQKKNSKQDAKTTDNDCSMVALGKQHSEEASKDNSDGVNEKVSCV
T4 sequence (P28566 whole entry): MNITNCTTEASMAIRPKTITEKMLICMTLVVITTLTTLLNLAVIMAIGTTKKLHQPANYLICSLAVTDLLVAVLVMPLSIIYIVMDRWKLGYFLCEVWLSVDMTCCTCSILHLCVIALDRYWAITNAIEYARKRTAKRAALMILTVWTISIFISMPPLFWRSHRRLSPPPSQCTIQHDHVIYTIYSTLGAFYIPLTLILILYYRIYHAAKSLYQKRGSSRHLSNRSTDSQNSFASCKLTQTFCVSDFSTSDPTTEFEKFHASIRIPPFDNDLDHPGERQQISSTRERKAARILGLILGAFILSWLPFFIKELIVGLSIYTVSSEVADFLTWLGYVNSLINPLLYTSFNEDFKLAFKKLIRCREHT

Consider `CCN(CCCNC(=O)c1ccc(-c2cccs2)cc1)CCNC(=O)c1cc(Br)cc(OC)c1OC` [9a, 5-Bromo-N-(2-(ethyl(3-(4-(thiophen-2-yl)benzamido)propyl)amino)ethyl)-2,3-dimethoxybenzamide], for which the inhibition at 10 µM (on Opioid DOR; in test [1]; on Serotonin 5-HT5A; at Serotonin 5-HT1E) was < 50% in each case. In addition, the Ki at Muscarinic M1 was determined as 2350 nM; at Adrenergic alpha2B, 235 nM; on Adrenergic alpha1D it was 2560 nM; at Histamine H2 it was 2610 nM; on Serotonin 5-HT1D, 1010 nM; on Serotonin 5-HT2A, 222 nM. The molecule further came in with an inhibitory constant (Ki) on Dopamine D1 of 2400 nM.
For `CCCN(CCCNC(=O)c1ccc(-c2cccs2)cc1)CCNC(=O)c1cc(Br)cc(OC)c1OC` [20a, 5-Bromo-2,3-dimethoxy-N-(2-(propyl(3-(4-(thiophen-2-yl)benzamido)propyl)amino)ethyl)benzamide], the inhibition at 10 µM on Opioid DOR is < 50%; on Serotonin 5-HT5A (PDSP, HCl salts), < 50%; at Serotonin 5-HT1E (PDSP, HCl salts), < 50%; at Muscarinic M1, < 50%. The Ki in test [1] was 5850 nM; on Adrenergic alpha2B it was 672 nM; at Adrenergic alpha1D, 2420 nM; on Histamine H2 it was 1650 nM; at Serotonin 5-HT1D it was 449 nM; at Serotonin 5-HT2A it was 617 nM. At Dopamine D1, this molecule yielded an inhibition constant Ki of 4290 nM.
Regarding `CCN(CCCNC(=O)c1ccc2ccccc2c1)CCNC(=O)c1cc(Br)cc(OC)c1OC` [21a, N-(3-((2-(5-Bromo-2,3-dimethoxybenzamido)ethyl)(ethyl)amino)propyl)-2-naphthamide], the inhibition at 10 µM is < 50% on Opioid DOR; < 50% on Serotonin 5-HT5A (PDSP, HCl salts); < 50% at Serotonin 5-HT1E (PDSP, HCl salts); < 50% at Muscarinic M1; < 50% on Adrenergic alpha1D; < 50% on Dopamine D1. The inhibitory constant (Ki) in test [1] came out at 3010 nM; on Adrenergic alpha2B it was 577 nM; on Histamine H2, 2790 nM; at Serotonin 5-HT1D, 1200 nM; at Serotonin 5-HT2A it was 1240 nM.
Turning to `CCN(CCCNC(=O)c1ccc(-c2ccncc2)cc1)CCNC(=O)c1cc(Br)cc(OC)c1OC` [21c, 5-Bromo-N-(2-(ethyl(3-(4-(pyridin-4-yl)benzamido)propyl)amino)ethyl)-2,3-dimethoxybenzamide], the inhibition at 10 µM was < 50% at Opioid DOR (PDSP, HCl salts); < 50% in test [1]; < 50% at Serotonin 5-HT5A (PDSP, HCl salts); < 50% on Serotonin 5-HT1E (PDSP, HCl salts); < 50% on Adrenergic alpha1D; < 50% on Histamine H2. Further, on Dopamine D1, the inhibition at 10 µM was < 50%. The Ki stood at 3390 nM at Muscarinic M1, 909 nM at Adrenergic alpha2B, 1150 nM on Serotonin 5-HT1D and 727 nM on Serotonin 5-HT2A.
On to `CCN(CCCNC(=O)c1cc2ccccc2[nH]1)CCNC(=O)c1cc(Br)cc(OC)c1OC` [21d, N-(3-((2-(5-Bromo-2,3-dimethoxybenzamido)ethyl)(ethyl)amino)propyl)-1H-indole-2-carboxamide], for which the inhibition at 10 µM was < 50% on Opioid DOR; < 50% in [1]; < 50% at Serotonin 5-HT5A (PDSP, HCl salts); < 50% on Serotonin 5-HT1E (PDSP, HCl salts); < 50% on Histamine H2; < 50% on Dopamine D1. In addition, the Ki at Muscarinic M1 was > 10000 nM; on Adrenergic alpha2B, 386 nM; on Adrenergic alpha1D it was 7310 nM; on Serotonin 5-HT1D, 1660 nM; on Serotonin 5-HT2A, 844 nM.
Turning to `CCN(CCCNC(=O)c1cn2ccccc2n1)CCNC(=O)c1cc(Br)cc(OC)c1OC` [21e, N-(3-((2-(5-Bromo-2,3-dimethoxybenzamido)ethyl)(ethyl)amino)propyl)imidazo[1,2-a]pyridine-2-carboxamide], the inhibition at 10 µM at Opioid DOR is < 50%; in test [1], < 50%; at Serotonin 5-HT5A (PDSP, HCl salts) it was < 50%; at Serotonin 5-HT1E (PDSP, HCl salts), < 50%; at Muscarinic M1 it was < 50%; at Adrenergic alpha1D, < 50%. The inhibition at 10 µM on Histamine H2, at Serotonin 5-HT1D (read-out: Ki (nM) or % inhibition at 10 µM: 5-HT1D) and at Dopamine D1 was < 50% each time. Further, the Ki on Adrenergic alpha2B was 2830 nM; on Serotonin 5-HT2A it was 1330 nM.
As to `CCN(CCCNC(=O)c1ccc(-c2ccsc2)cc1)CCNC(=O)c1cc(Br)cc(OC)c1OC` [21g, 5-Bromo-N-(2-(ethyl(3-(4-(thiophen-3-yl)benzamido)propyl)amino)ethyl)-2,3-dimethoxybenzamide], the inhibition at 10 µM at Opioid DOR was < 50%; in test [1], < 50%; on Serotonin 5-HT5A (PDSP, HCl salts), < 50%; on Serotonin 5-HT1E (PDSP, HCl salts) it was < 50%. Besides, the Ki was found to be 3430 nM at Muscarinic M1; 571 nM on Adrenergic alpha2B; 1410 nM on Adrenergic alpha1D; 2480 nM at Histamine H2; 1820 nM at Serotonin 5-HT1D; 276 nM at Serotonin 5-HT2A. At Dopamine D1, this molecule yielded an inhibition constant Ki of 2010 nM.
With `CCN(CCCNC(=O)c1ccsc1)CCNC(=O)c1cc(Br)cc(OC)c1OC` [21i, N-(3-((2-(5-Bromo-2,3-dimethoxybenzamido)ethyl)(ethyl)amino)propyl)thiophen-e-3-carboxamide], the inhibition at 10 µM at Opioid DOR (PDSP, HCl salts) is < 50%; in test [1], < 50%; on Serotonin 5-HT5A (PDSP, HCl salts), < 50%; at Serotonin 5-HT1E (PDSP, HCl salts), < 50%; at Muscarinic M1 it was < 50%; at Adrenergic alpha1D, < 50%. Also, the inhibition at 10 µM on Histamine H2 and at Dopamine D1 was < 50% in each case. Further, the inhibition constant Ki was found to be 2950 nM at Adrenergic alpha2B, 3140 nM on Serotonin 5-HT1D and 1370 nM at Serotonin 5-HT2A.

As a reminder, the inhibition is the change of the read-out against control, counted positive when it falls. As usually defined, the Ki is the dissociation constant of the complex between target and ligand, obtained from inhibition or displacement.
